Assays:
Mcl-1 protein = Mcl-1 protein (UniProtKB primary accession number: Q07820) (Homo sapiens, UniProt Q07820); assay: Inhibition of Mcl-1 by fluorescence polarisation, Method 1; format: binding; settings: fluorescence polarisation test; Method 2 values are underlined in the patent (underlining not visible here); read-out: IC50 (M) Mcl-1 FP
In short: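 Compounds were tested as 11-point serial dilutions at 5% final DMSO against 5 nM Mcl-1 with 1 nM fluorescein-labelled ligand in 10 mM HEPES, 150 mM NaCl, 0.05% Tween 20, pH 7.4. Relative binding potency was read by fluorescence polarisation.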

[1] = system: H929 multiple myeloma tumour line; assay: In vitro cytotoxicity, Microculture Tetrazolium Assay; format: cell-based; settings: Homo sapiens, NCI-H929, 48 h, H929 cells, 48 hours exposure, MTT; read-out: IC50 (μM) MTT H929
Experimental: The cytotoxicity studies were carried out on the H929 multiple myeloma tumour line.
The cells are distributed onto microplates and exposed to the test compounds for 48 hours.

Chain of Mcl-1 protein (Q07820 whole entry): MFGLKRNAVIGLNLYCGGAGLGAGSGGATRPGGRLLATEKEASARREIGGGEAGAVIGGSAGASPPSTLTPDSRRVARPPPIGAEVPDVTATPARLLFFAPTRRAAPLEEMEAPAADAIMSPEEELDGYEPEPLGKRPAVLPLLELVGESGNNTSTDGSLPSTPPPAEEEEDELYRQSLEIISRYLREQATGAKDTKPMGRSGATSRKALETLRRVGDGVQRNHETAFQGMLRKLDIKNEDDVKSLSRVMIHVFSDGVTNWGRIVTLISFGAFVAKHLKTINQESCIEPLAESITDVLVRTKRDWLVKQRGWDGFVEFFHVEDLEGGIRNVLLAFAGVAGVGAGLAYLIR

IC50 (Mcl-1 protein) [M] | Compound | IC50 [1] [µM]
7e-09 | Cc1c(-c2c(-c3ccc(F)cc3)sc3ncnc(OC(Cc4ccccc4OCc4ccnn4CCN(C)C)C(=O)O)c23)ccc(OCCN2CCN(C)CC2)c1Cl [Example 87, (2R)-2-{[(5Sa)-5-{3-chloro-2-methyl-4-[2-(4-methylpiperazin-1-yl)ethoxy]phenyl}-6-(4-fluorophenyl)thieno[2,3-d]pyrimidin-4-yl]oxy}-3-[2-({1-[2-(dimethylamino)ethyl]-1H-pyrazol-5-yl}methoxy)phenyl]propanoic acid] | 0.274
4.2e-09 | COCCn1nccc1COc1ccccc1CC(Oc1ncnc2sc(-c3ccc(F)cc3)c(-c3ccc(OCCN4CCN(C)CC4)c(Cl)c3C)c12)C(=O)O [Example 88, (2R)-2-{[(5Sa)-5-{3-chloro-2-methyl-4-[2-(4-methylpiperazin-1-yl)ethoxy]phenyl}-6-(4-fluorophenyl)thieno[2,3-d]pyrimidin-4-yl]oxy}-3-(2-{[1-(2-methoxyethyl)-1H-pyrazol-5-yl]methoxy}phenyl)propanoic acid] | 0.062
6.5e-09 | CCOCCn1nccc1COc1ccccc1CC(Oc1ncnc2sc(-c3ccc(F)cc3)c(-c3ccc(OCCN4CCN(C)CC4)c(Cl)c3C)c12)C(=O)O [Example 89, (2R)-2-{[(5Sa)-5-{3-chloro-2-methyl-4-[2-(4-methylpiperazin-1-yl)ethoxy]phenyl}-6-(4-fluorophenyl)thieno[2,3-d]pyrimidin-4-yl]oxy}-3-(2-{[1-(2-ethoxyethyl)-1H-pyrazol-5-yl]methoxy}phenyl)propanoic acid] | 0.027
3.2e-09 | COCCOCCn1nccc1COc1ccccc1CC(Oc1ncnc2sc(-c3ccc(F)cc3)c(-c3ccc(OCCN4CCN(C)CC4)c(Cl)c3C)c12)C(=O)O [Example 90, (2R)-2-{[(5Sa)-5-{3-chloro-2-methyl-4-[2-(4-methylpiperazin-1-yl)ethoxy]phenyl}-6-(4-fluorophenyl)thieno[2,3-d]pyrimidin-4-yl]oxy}-3-[2-({1-[2-(2-methoxyethoxy)ethyl]-1H-pyrazol-5-yl}methoxy)phenyl]propanoic acid] | 0.058
1.4e-08 | Cc1c(-c2c(-c3ccc(F)cc3)sc3ncnc(OC(Cc4ccccc4OCc4cncnc4)C(=O)O)c23)ccc(OCCN2CCN(C)CC2)c1Cl [Example 93, (2R)-2-{[(5Sa)-5-{3-chloro-2-methyl-4-[2-(4-methylpiperazin-1-yl)ethoxy]phenyl}-6-(4-fluorophenyl)thieno[2,3-d]pyrimidin-4-yl]oxy}-3-[2-(pyrimidin-5-ylmethoxy)phenyl]propanoic acid] | 0.087
1.9e-09 | Cc1c(-c2c(-c3ccc(F)cc3)sc3ncnc(OC(Cc4ccccc4OCc4cnnn4-c4ccccc4)C(=O)O)c23)ccc(OCCN2CCN(C)CC2)c1Cl [Example 94, (2R)-2-{[(5Sa)-5-{3-chloro-2-methyl-4-[2-(4-methylpiperazin-1-yl)ethoxy]phenyl}-6-(4-fluorophenyl)thieno[2,3-d]pyrimidin-4-yl]oxy}-3-{2-[(1-phenyl-1H-1,2,3-triazol-5-yl)methoxy]phenyl}propanoic acid] | 0.085
3.8e-09 | COCCCn1nncc1COc1ccccc1CC(Oc1ncnc2sc(-c3ccc(F)cc3)c(-c3ccc(OCCN4CCN(C)CC4)c(Cl)c3C)c12)C(=O)O [Example 96, (2R)-2-{[(5Sa)-5-{3-chloro-2-methyl-4-[2-(4-methylpiperazin-1-yl)ethoxy]phenyl}-6-(4-fluorophenyl)thieno[2,3-d]pyrimidin-4-yl]oxy}-3-(2-{[1-(3-methoxypropyl)-1H-1,2,3-triazol-5-yl]methoxy}phenyl)propanoic acid] | 0.034
3.3e-09 | COCCn1nncc1COc1ccccc1CC(Oc1ncnc2sc(-c3ccc(F)cc3)c(-c3ccc(OCCN4CCN(C)CC4)c(Cl)c3C)c12)C(=O)O [Example 97, (2R)-2-{[(5Sa)-5-{3-chloro-2-methyl-4-[2-(4-methylpiperazin-1-yl)ethoxy]phenyl}-6-(4-fluorophenyl)thieno[2,3-d]pyrimidin-4-yl]oxy}-3-(2-{[1-(2-methoxyethyl)-1H-1,2,3-triazol-5-yl]methoxy}phenyl)propanoic acid] | 0.075
3.3e-07 | Cc1c(-c2c(-c3ccc(F)cc3)sc3ncnc(OC(Cc4ccccc4OCc4cocn4)C(=O)O)c23)ccc(OCCN2CCN(C)CC2)c1Cl [Example 98, (2R)-2-{[(5Sa)-5-{3-chloro-2-methyl-4-[2-(4-methylpiperazin-1-yl)ethoxy]phenyl}-6-(4-fluorophenyl)thieno[2,3-d]pyrimidin-4-yl]oxy}-3-[2-(1,3-oxazol-4-ylmethoxy)phenyl]propanoic acid] | 0.118
8e-09 | Cc1c(-c2c(-c3ccc(F)cc3)sc3ncnc(OC(Cc4ccccc4OCc4ncncc4Br)C(=O)O)c23)ccc(OCCN2CCN(C)CC2)c1Cl [Example 101, (2R)-3-{2-[(5-bromopyrimidin-4-yl)methoxy]phenyl}-2-{[(5Sa)-5-{3-chloro-2-methyl-4-[2-(4-methylpiperazin-1-yl)ethoxy]phenyl}-6-(4-fluorophenyl)thieno[2,3-d]pyrimidin-4-yl]oxy}propanoic acid] | 0.398
2.4e-08 | Cc1c(-c2c(-c3ccc(F)cc3)sc3ncnc(OC(Cc4ccccc4OCCF)C(=O)O)c23)ccc(OCCN2CCN(C)CC2)c1Cl [Example 103, (2R)-2-{[(5Sa)-5-{3-chloro-2-methyl-4-[2-(4-methylpiperazin-1-yl)ethoxy]phenyl}-6-(4-fluorophenyl)thieno[2,3-d]pyrimidin-4-yl]oxy}-3-[2-(2-fluoroethoxy)phenyl]propanoic acid] | 0.214
7.5e-09 | COCCOc1ccccc1CC(Oc1ncnc2sc(-c3ccc(F)cc3)c(-c3ccc(OCCN4CCN(C)CC4)c(Cl)c3C)c12)C(=O)O [Example 104, (2R)-2-{[(5Sa)-5-{3-chloro-2-methyl-4-[2-(4-methylpiperazin-1-yl)ethoxy]phenyl}-6-(4-fluorophenyl)thieno[2,3-d]pyrimidin-4-yl]oxy}-3-[2-(2-methoxyethoxy)phenyl]propanoic acid] | 0.386
1.2e-08 | COCCOCCOc1ccccc1CC(Oc1ncnc2sc(-c3ccc(F)cc3)c(-c3ccc(OCCN4CCN(C)CC4)c(Cl)c3C)c12)C(=O)O [Example 105, (2R)-2-{[(5Sa)-5-{3-chloro-2-methyl-4-[2-(4-methylpiperazin-1-yl)ethoxy]phenyl}-6-(4-fluorophenyl)thieno[2,3-d]pyrimidin-4-yl]oxy}-3-{2-[2-(2-methoxyethoxy)ethoxy]phenyl}propanoic acid] | 0.251
1.2e-08 | COCCOCCOCCOc1ccccc1CC(Oc1ncnc2sc(-c3ccc(F)cc3)c(-c3ccc(OCCN4CCN(C)CC4)c(Cl)c3C)c12)C(=O)O [Example 106, (2R)-2-{[(5Sa)-5-{3-chloro-2-methyl-4-[2-(4-methylpiperazin-1-yl)ethoxy]phenyl}-6-(4-fluorophenyl)thieno[2,3-d]pyrimidin-4-yl]oxy}-3-(2-{2-[2-(2-methoxyethoxy)ethoxy]ethoxy}phenyl)propanoic acid] | 0.195
5.3e-09 | COc1ccc(-c2nccc(COc3ccccc3CC(Oc3ncnc4sc(-c5ccc(F)cc5)c(-c5ccc(OCCN6CCN(C)CC6)c(Cl)c5C)c34)C(=O)O)n2)cc1 [Example 107, (2R)-2-{[(5Sa)-5-{3-chloro-2-methyl-4-[2-(4-methylpiperazin-1-yl)ethoxy]phenyl}-6-(4-fluorophenyl)thieno[2,3-d]pyrimidin-4-yl]oxy}-3-(2-{[2-(4-methoxyphenyl)pyrimidin-4-yl]methoxy}phenyl)propanoic acid] | 0.007
3.5e-09 | Cc1ccc(-c2nccc(COc3ccccc3CC(Oc3ncnc4sc(-c5ccc(F)cc5)c(-c5ccc(OCCN6CCN(C)CC6)c(Cl)c5C)c34)C(=O)O)n2)cn1 [Example 108, (2R)-2-{[(5Sa)-5-{3-chloro-2-methyl-4-[2-(4-methylpiperazin-1-yl)ethoxy]phenyl}-6-(4-fluorophenyl)thieno[2,3-d]pyrimidin-4-yl]oxy}-3-(2-{[2-(6-methylpyridin-3-yl)pyrimidin-4-yl]methoxy}phenyl)propanoic acid] | 0.007
8.4e-09 | Cc1c(-c2c(-c3ccc(F)cc3)sc3ncnc(OC(Cc4ccccc4OCc4ccnc(-c5ccc(C(F)(F)F)nc5)n4)C(=O)O)c23)ccc(OCCN2CCN(C)CC2)c1Cl [Example 109, (2R)-2-{[(5Sa)-5-{3-chloro-2-methyl-4-[2-(4-methylpiperazin-1-yl)ethoxy]phenyl}-6-(4-fluorophenyl)thieno[2,3-d]pyrimidin-4-yl]oxy}-3-[2-({2-[6-(trifluoromethyl)pyridin-3-yl]pyrimidin-4-yl}methoxy)phenyl]propanoic acid] | 0.108
4.3e-09 | Cc1c(-c2c(-c3ccc(F)cc3)sc3ncnc(OC(Cc4ccccc4OCc4ccnc(-c5ccc(Cl)nc5)n4)C(=O)O)c23)ccc(OCCN2CCN(C)CC2)c1Cl [Example 110, (2R)-2-{[(5Sa)-5-{3-chloro-2-methyl-4-[2-(4-methylpiperazin-1-yl)ethoxy]phenyl}-6-(4-fluorophenyl)thieno[2,3-d]pyrimidin-4-yl]oxy}-3-(2-{[2-(6-chloropyridin-3-yl)pyrimidin-4-yl]methoxy}phenyl)propanoic acid] | 0.022
3.3e-09 | COc1ccc(-c2nccc(COc3ccccc3CC(Oc3ncnc4sc(-c5ccc(F)cc5)c(-c5ccc(OCCN6CCN(C)CC6)c(Cl)c5C)c34)C(=O)O)n2)cn1 [Example 111, (2R)-2-{[(5Sa)-5-{3-chloro-2-methyl-4-[2-(4-methylpiperazin-1-yl)ethoxy]phenyl}-6-(4-fluorophenyl)thieno[2,3-d]pyrimidin-4-yl]oxy}-3-(2-{[2-(6-methoxypyridin-3-yl)pyrimidin-4-yl]methoxy}phenyl)propanoic acid] | 0.008

— patent US9670227B2, “Thienopyrimidine derivatives, a process for their preparation and pharmaceutical compositions containing them” (LES LABORATOIRES SERVIER, priority 2013, dated 2017)
